Test results reported in patent publication US6174864A, “Methods for the prevention or treatment of inflammatory bowel diseases” (CCI Corporation, priority 1996, dated 2001).

Legend:
[1] = cited from earlier work; for water-solubility: prior-art compounds
Water-solubility = format: physicochemical; settings: ratio to that of Trolox
ICR type mice = assay: Test for acute toxicity; format: in vivo; settings: oral, 500 mg/kg in 5% gum arabic solution, one week observation
Procedure: The preventive and curative agent of this invention for inflammatory bowel diseases was tested for acute toxicity in an effort to confirm the safety thereof. ICR type mice 4-5 weeks old were divided into groups of three heads. The same TMG as mentioned above was suspended as a chromanol glucoside in 5% gum arabic solution. The resultant suspension was orally administered to the rats in a dosage of 500 mg/kg as reduced to TMG, with the rats kept under observation for one week. In this case, 0.3 ml of a 5% gum arabic solution was administered to a control group.

[2] = test system: myeloperoxidase (MPO), TNB-induced colitis; assay: MPO activity in intestinal mucous membrane of TNB-induced colitis; format: in vivo, Male Wistar rats; settings: intraabdominal, daily, one week, normal 0.19, control 0.74
Excerpt: (§1) The trinitrobenzenesulfonic acid (TNB)-induced colitis is said to resemble the inflammatory bowel disease of man, particularly Crohn's disease. In this model, the myeloperoxidase (MPO) activity, i.e. an index of the humectation of neutrophil into the tissue, prominently increases in the intestinal mucous membrane from the initial stage of the TNB administration onward and thereafter induces full-thickness inflammations inclusive of edama, erosion, and necrosis of the intestinal duct. In this lesion of the mucous membrane, the thiobarbituraic acid (TAB) reaction substance, i.e. an index of the peroxide of lipid, also increases and the antioxidizing substances such as the SOD activity, the glutathionperoxidase (GPx) activity, and α-tocopherol conversely decrease. By the use of this model, the chromanol glucoside was tested for the effect thereof manifested in repressing the lesion of the TNB-induced colitis.
(§2) As the chromanol glucoside, the 2-(α-D-glucopyranosyl) methyl-2,5,7,8-tetramethylchroman-6-ol (TMG) represented by the following formula (3) produced by the method described in Example 1 of JP-A-07-118,287 was thoroughly dissolved in water in varying concentrations of 20 mg/ml, 2 mg/ml, and 0.2 mg/ml to obtain injection grade preparations. [drawing 5]
Male Wistar rats 7 weeks old weighing 190-210 g were divided into groups of six heads. […]
(§3) Of the items of rating mentioned above, the damage score, the TBA reactive substance, and the MPO activity were measured by the following methods.
The determination was carried out in accordance with the o-dianisidine-hydrogen peroxide reaction (J. E. Krrawisz, et al.,: Gastroenterology, 87 (1984) 1344-135). […] In 950 μl of a reaction solution prepared by dissolving 16.7 mg of o-dianidine dihydrochloride in 50 mM of potassium phosphate having a pH of 6.0 and further mixing the resulting solution with 100 μl of an aqueous 0.5% hydrogen peroxide solution, 50 μl of the sample was placed and measured for change in absorbance at a wavelength of 460 nm with a spectrophotometer. […]

[3] = test system: TBA reactive substance (index of the peroxide of lipid), TNB-induced colitis; assay: TBA reactive substance in intestinal mucous membrane of TNB-induced colitis; format: in vivo, Male Wistar rats; settings: intraabdominal, daily, one week, normal 0.13, control 0.53
Excerpt: as §1, §2
Male Wistar rats 7 weeks old weighing 190-210 g were divided into groups of six heads. To the rats, after 48 hours' fasting, the TBN dissolved in 50% ethanol in a ratio of 120 mg/ml was intestinally administered at a dose of 1 ml/kg. […]
as §3
The determination was performed in accordance with the method proposed by Ohkawa et al. (H. Ohkawa, et al.: Anal. Biochem., 95 (1979) 351-358). […] The supernatant resulting from the centrifugation was measured for absorbance at a wavelength of 535 nm with a spectrophotometer. […] Based on this calibration curve, the TBA reactive substance of a sample was determined.

TNB-induced colitis = assay: Effect of repressing lesion in TNB-induced colitis (body weight increase, damage score, wet weight of intestine); format: in vivo, Male Wistar rats; settings: intraabdominal, daily, one week; for Wet weight: intestine, normal 0.58, control 2.6; for Damage score: lesion 0-5 plus adhesion 0-3, normal 0, control 7.25; for Amount of increase in body weight: normal group 93.5, control group 17.5
Excerpt: as §1, §2
Male Wistar rats 7 weeks old weighing 190-210 g were divided into groups of six heads. To the rats, after 48 hours' fasting, the TBN dissolved in 50% ethanol in a ratio of 120 mg/ml was intestinally administered at a dose of 1 ml/kg. Thereafter, the TMG preparations obtained as described above were administered to the rats intraabdominally at a dose of […] per head daily. After one week of the administration, the rats were rated for increase of body weight, damage score of the intestine in a 8 cm region on the side of the anus, wet weight, TBA reactive substance, and MPO activity.
as §3
The lesion on the intestinal mucous membrane was classified on the six-point (0-5) scale in accordance with the Morris Classification (G. P. Morris, et al.,: Gastoenterology, 96 (1989) 750-803) and the degree of adhesion to the intestinal mucous membrane was classified on the four-point (0-3) scale (0: absence of adhesion, 1: presence of incontinuous adhesion, 2: presence of continuous adhesion, and 3: presence of clots). The sums of these points were used for rating.

Cc1c(C)c2c(c(C)c1O)CCC(C)(C(=O)O)O2 (centres unmarked) [Trolox, 6-hydroxy-2,5,7,8-tetramethylchroman-2-carboxylic acid]
water-solubility [1]: about 15 mg/100 ml

Cc1c(C)c2c(c(C)c1O)CCC(C)(CO)O2 (centres unmarked) [TMC-2-substituted methanol, 2-hydroxymethyl-2,5,7,8-tetramethylchroman-6-ol]
water-solubility relative to Trolox (Water-solubility): about 6.3 times
water-solubility [1]: about 100 mg/100 ml

Cc1c(C)c2c(c(C)c1O)CCC(C)(CCCC(C)CCCC(C)CCCC(C)C)O2 (stereo not drawn) [vitamin E, α-tocopherol]
water-solubility (in words) ([1]; prior-art compound): not soluble in water

Cc1c(C)c2c(c(C)c1O)CCC(C)(CO[C@H]1O[C@H](CO)[C@@H](O)[C@H](O)[C@H]1O)O2 (some centres unmarked) [TMG]
death of mouse in acute toxicity test (ICR type mice): No case of death
MPO activity ([2]; TMG 0.2 mg/ml): 0.52 U/l/mg protein
MPO activity ([2]; TMG 2 mg/ml): 0.64 U/l/mg protein
MPO activity ([2]; TMG 20 mg/ml): 0.48 U/l/mg protein
TAB reactive substance ([3]; TMG 0.2 mg/ml): 0.31 ng/mg protein
TAB reactive substance ([3]; TMG 2 mg/ml): 0.38 ng/mg protein
TAB reactive substance ([3]; TMG 20 mg/ml): 0.35 ng/mg protein
Wet weight (TNB-induced colitis; TMG 0.2 mg/ml): 1.06 g/8 cm
Damage score (TNB-induced colitis; TMG 0.2 mg/ml): 4.75
Amount of increase in body weight (TNB-induced colitis; TMG 0.2 mg/ml): 63 g/one week
Wet weight (TNB-induced colitis; TMG 2 mg/ml): 1.15 g/8 cm
Damage score (TNB-induced colitis; TMG 2 mg/ml): 3.75
Amount of increase in body weight (TNB-induced colitis; TMG 2 mg/ml): 64 g/one week
Wet weight (TNB-induced colitis; TMG 20 mg/ml): 0.86 g/8 cm
Damage score (TNB-induced colitis; TMG 20 mg/ml): 4
Amount of increase in body weight (TNB-induced colitis; TMG 20 mg/ml): 57 g/one week
